Measurements published in patent publication US20220389057A1, “ENDOCYTOSIS ROUTING SEQUENCE PEPTIDE FOR CELL DELIVERY SYSTEMS” (SZEGEDI TUDOMÁNYEGYETEM, priority 2019, published 2022).

experiment: Isothermal titration calorimetry (ITC), binding to ganglioside GM1; details: first binding step, Table 1, pH 7.2, 35° C.
Description: Isothermal calorimetric titrations (ITC) were performed with a MicroCal VP-ITC microcalorimeter in pH 7.2 phosphate buffer solution. In individual titrations, 15 μL GM1:DPC 1:5 containing solution was injected from the computer-controlled […] microsyringe at intervals of 300 s into the ligand solution, dissolved in the same buffer as the GM1. All measurements were carried out at 35° C. The ligands concentration in the cell was 15 μM, and the concentration of GM1 in the syringe was 300 μM. Control experiments were performed by injecting GM1 into the cell containing buffer but no ligands Experiments were repeated twice. The experimental data were fitted to the one binding site or two independent sites model (adjustable parameters: ΔHb1, Kd1, n1 and ΔHb2, Kd2, n2) using a nonlinear least-squares procedure. Errors were calculated by jackknife resampling.
Binding of Trp-Tyr-Lys-Tyr-Trp (WYKYW) and analogues to various ganglioside derivatives was tested as described under “Isothermal Titration calorimetry” to explore the specificity of the interaction between WYKYW and GM1. Affinity data for binding between WYKYW and various ganglioside derivatives (FIG. 1), and for binding between various mutated sequences of WYKYW and GM1 (Table 1) were obtained by Isothermal Titration calorimetry as described in Example 1 (General methods).

KD1/nM	Molecule
not fittable	AYKYW [Ala point mutation of WYKYW]

same assay, conditions: first binding step, Table 1, pH 7.2, 35° C., read-out: KD1/nM

Kd	Molecule
3930 nM	NCCCC[C@H](NC(=O)[C@H](Cc1ccc(O)cc1)NC(=O)[C@@H](N)Cc1c[nH]c2ccccc12)C(=O)N[C@@H](Cc1ccc(O)cc1)C(=O)N[C@H](Cc1c[nH]c2ccccc12)C(N)=O [WYKYw]
892 nM	NCCCC[C@H](NC(=O)[C@@H](Cc1ccc(O)cc1)NC(=O)[C@@H](N)Cc1c[nH]c2ccccc12)C(=O)N[C@@H](Cc1ccc(O)cc1)C(=O)N[C@@H](Cc1c[nH]c2ccccc12)C(N)=O [WyKYW]
881 nM	NCCCC[C@H](NC(=O)[C@H](Cc1ccc(O)cc1)NC(=O)[C@H](N)Cc1c[nH]c2ccccc12)C(=O)N[C@@H](Cc1ccc(O)cc1)C(=O)N[C@@H](Cc1c[nH]c2ccccc12)C(N)=O [wYKYW]
5760 nM	WAKYW [Ala point mutation of WYKYW]
1060 nM	WYKYA [Ala point mutation of WYKYW]
10500 nM	WYAYW [Ala point mutation of WYKYW]
1690 nM	WYKAW [Ala point mutation of WYKYW]
4520 nM	NCCCC[C@@H](NC(=O)[C@H](Cc1ccc(O)cc1)NC(=O)[C@@H](N)Cc1c[nH]c2ccccc12)C(=O)N[C@@H](Cc1ccc(O)cc1)C(=O)N[C@@H](Cc1c[nH]c2ccccc12)C(N)=O [WYkYW]
3240 nM	NCCCC[C@H](NC(=O)[C@H](Cc1ccc(O)cc1)NC(=O)[C@@H](N)Cc1c[nH]c2ccccc12)C(=O)N[C@H](Cc1ccc(O)cc1)C(=O)N[C@@H](Cc1c[nH]c2ccccc12)C(N)=O [WYKyW]

Molecule	Kd
β^3-homo-Trp-Tyr-Lys-Tyr-Trp [bWYKYW]	4.3 nM
Trp-Tyr-Lys-β^3-homo-Tyr-Trp [WYKbYW]	40 nM
Trp-β^3-homo-Tyr-Lys-Tyr-Trp [WbYKYW]	60 nM

same assay, conditions: second binding step, Table 1, pH 7.2, 35° C., read-out: KD2/nM

Molecule	Kd
β^3-homo-Trp-Tyr-Lys-Tyr-Trp [bWYKYW]	2100 nM
Trp-Tyr-Lys-β^3-homo-Tyr-Trp [WYKbYW]	1200 nM
Trp-β^3-homo-Tyr-Lys-Tyr-Trp [WbYKYW]	1000 nM
